Reference: patent US20240391931A1 (Bristol-Myers Squibb Company, priority 2021, published 2024)
Structures can show the parent of a compound that is named as a salt.

How the values were obtained:
HER2YVMA [1] = target: T1, HER2YVMA (Homo sapiens, UniProt P04626, INS775YVMA); test: HER2 occupancy assay in Ba/F3-HER2YVMA cells; format: cell-based; design: expressed in transfected cells; host or cells: Ba/F3 (clones); lentiviral vector pCDH-CMV-MCS-EF1-Neo; conditions: concentration at which 50% of HER2 is irreversible bound, read-out: Ba/F3 YVMA HER2 Occ
Method: In order to assess free HER2 protein, a biotinylated probe was utilized. BT474, N87, and Ba/F3-HER2YVMA cells were treated with test compound as described for HER2 signaling. After compound treatment, cells were washed three times with cold phosphate buffer saline (PBS, Life Technologies, Carlsbad, CA), and lysed in modified occupancy lysis buffer prepared with an irreversible biotinylated tool compound (1 μM) in 25 mM Tris pH 7.5, 150 mM NaCl, 1% Triton, and supplemented with cOmplete, EDTA-free Protease inhibitor cocktail (Roche), Phosphatase Inhibitor Cocktails 2 and 3 (Sigma-Aldrich), and 1 mM PMSF (Sigma-Aldrich). To determine % occupancy, lysates were loaded into duplicate plates of the phospho ([…])/total ErbB2 whole cell lysate MSD kit (Meso-Scale Discovery) and incubated overnight. Plates were washed and incubation with either HER2-sulfoTag (1:50, Meso Scale Discovery) or Strep-Sulfo Tag (1:1000, Meso Scale Discovery), for detection of […]. A standard curve of untreated cells in serial dilution was included in each plate to independently fit streptavidin (Free HER2) and total HER2 MSD signals; non-specific signal (BSA control spots) was subtracted from each well. Free HER2 was then normalized by total HER2 for each sample. The results are reported as % DMSO control. The normalized data was fitted using a sigmoidal curve analysis program (Graph Pad Prism version 6) with variable Hill slope to determine EC50 values. The results are provided in Table 4, under columns titled “BT474-HER2 Occ”, “N87-HER2 Occ”, and “Ba/F3 YVMA-HER2 Occ”. HER2 Occ is the concentration of test compound at which 50% of HER2 is irreversible bound.

HER2YVMA [2] = target: T1, HER2YVMA; test: HER2 signaling (pHER2) in Ba/F3-HER2YVMA cells; format: cell-based; design: expressed in transfected cells; host or cells: HEK293 (pool), Ba/F3 (clones), BEAS2B (clones); lentiviral vector pCDH-CMV-MCS-EF1-Neo; conditions: read-out: Ba/F3 YVMA pHER2 EC50
Method: Cell culture, plasmid cloning, and lentiviral transduction were carried out according to standard procedures. The Human HER2 cDNA construct in pCMV6-Entry for the HER2 wildtype (WT) expression was obtained from Origene. The HER2 cDNA including the 12-nucleotide insertion corresponding to YVMA insertion (HER2YVMA) was codon optimized, synthesized and cloned by GenScript (Piscataway, NJ) in pcDNA3.1. The lentiviral constructs expressing HER2YVMA and HER2 WT were sub-cloned using PCR at System Biosciences (SBI, Mountainview, CA) into lentiviral vectors pCDH-CMV-MCS-EF1-Neo and lentiviral particles were generated.
Engineered lines expressing HER2YVMA and HER2 WT were prepared in HEK293 (human embryonic kidney cells), Ba/F3 (Interleukin 3 (IL3)-dependent murine pro B cell line), and BEAS2B (primary immortalized human bronchial epithelial cell line). Ba/F3, BEAS2B, and HEK293 cells were obtained from the American Type Culture Collection (ATCC, Manassas, VA). Parental Ba/F3 cells were grown in suspension in complete RPMI 1640 supplemented with 10% FBS and 1% P/S and 10 ng/ml interleukin 3 (IL3, Sigma-Aldrich). Hek293 and BEAS2B cells were grown as monolayers in DMEM supplemented with 10% FBS and 1% P/S. All cells were maintained and propagated in a humidified 5% CO2 incubator at 37° C.
To generate Ba/F3, BEAS2B, and Hek-293 cells engineered with lentivirus to express HER2 WT or HER2YVMA, the cells were transduced with lentiviruses at multiplicity of infection (MOI) of 1 or 10; transduced cells were selected and maintained with G418 ([…]) (Geneticin, Life Technologies, Carlsbad, CA). Ba/F3 engineered cells were subjected to gradual withdrawal of interleukin 3 (IL-3, Sigma-Aldrich). After selection, IL3 independent Ba/F3 HER2YVMA, and BEAS2B HER2YVMA cells were cloned by limiting dilution. Hek293 HER2YVMA cells were used as pool. HER2 and phospho HER2 levels were confirmed by flow cytometery and immunoassay (MSD, Meso-Scale Discovery, Rockville, Maryland).
Compound treatment of Ba/F3-HER2YVMA suspension cells was done as described with minor modifications. Cells were plated at 300000 cell/well in 96-well round bottom plates in RPMI supplemented with 2% FBS and immediately dosed with compounds serially diluted in media without serum for a final concentration of 1% FBS, 0.1% DMSO. Cells were incubate with compounds for 1.5 hr, and plates were spun at 1500 rpm for 5 mins to remove media without disturbing pellet. Cells were lysed as described above.
HER2 signaling was evaluated using phospho (Tyr1248)/total ErbB2 whole cell lysate MSD plates (Meso-Scale Discovery, Gaithersburg, MD). The phospho HER2 signal was normalized to total HER2 for each sample; results are reported as % DMSO control. The normalized data was fitted using a sigmoidal curve analysis program (Graph Pad Prism version 6) with variable Hill slope to determine EC50 values.
The HER2 signaling results are provided in Table 4, under columns titled “BT474-pHER2 EC50”, “N87-pHER2 EC50”, and “NCI-H1781-pHER2 EC50”. Hek293-HER2YVMA ins fall under the heading “HEKYVMA-pHER2 EC50”, Ba/F3 HER2YVMA fall under the heading “Ba/F3 YVMA-pHER2 EC50” and BEAS2B-HER2YVMA fall under the heading “BEAS2B YVMA-pHER2 EC50”.

T1 sequence (P04626 with tags, fused parts or gaps INS775YVMA): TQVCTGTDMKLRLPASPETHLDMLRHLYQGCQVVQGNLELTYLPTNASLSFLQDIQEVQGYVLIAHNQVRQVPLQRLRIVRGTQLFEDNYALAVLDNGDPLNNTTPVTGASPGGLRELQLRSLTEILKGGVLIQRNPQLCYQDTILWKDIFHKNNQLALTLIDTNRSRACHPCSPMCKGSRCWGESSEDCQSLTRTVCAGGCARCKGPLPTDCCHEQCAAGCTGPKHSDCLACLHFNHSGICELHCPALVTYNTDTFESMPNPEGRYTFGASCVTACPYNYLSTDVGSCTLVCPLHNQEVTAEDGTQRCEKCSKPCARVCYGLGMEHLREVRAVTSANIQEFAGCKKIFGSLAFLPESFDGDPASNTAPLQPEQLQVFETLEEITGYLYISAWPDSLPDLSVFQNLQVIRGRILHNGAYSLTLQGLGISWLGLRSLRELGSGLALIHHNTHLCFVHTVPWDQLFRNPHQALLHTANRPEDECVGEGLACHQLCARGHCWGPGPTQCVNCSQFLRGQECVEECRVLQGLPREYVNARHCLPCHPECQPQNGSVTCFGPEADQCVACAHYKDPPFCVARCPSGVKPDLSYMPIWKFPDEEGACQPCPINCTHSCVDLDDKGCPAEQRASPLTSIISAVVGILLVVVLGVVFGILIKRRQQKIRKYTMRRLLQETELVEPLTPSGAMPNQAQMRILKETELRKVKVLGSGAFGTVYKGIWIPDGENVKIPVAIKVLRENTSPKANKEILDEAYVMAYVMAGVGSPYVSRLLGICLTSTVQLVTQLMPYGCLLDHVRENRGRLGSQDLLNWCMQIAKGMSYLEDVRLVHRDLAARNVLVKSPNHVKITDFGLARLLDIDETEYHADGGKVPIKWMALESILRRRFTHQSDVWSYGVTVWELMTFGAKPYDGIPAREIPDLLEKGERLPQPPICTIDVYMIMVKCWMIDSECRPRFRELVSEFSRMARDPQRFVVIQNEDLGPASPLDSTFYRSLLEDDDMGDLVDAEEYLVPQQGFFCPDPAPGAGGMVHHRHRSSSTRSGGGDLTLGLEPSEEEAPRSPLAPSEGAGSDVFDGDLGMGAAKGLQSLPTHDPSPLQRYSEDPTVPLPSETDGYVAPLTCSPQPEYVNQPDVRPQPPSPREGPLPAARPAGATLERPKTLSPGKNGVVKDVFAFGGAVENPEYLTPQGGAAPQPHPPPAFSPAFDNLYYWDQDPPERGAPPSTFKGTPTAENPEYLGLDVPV

Compound	EC50 (HER2YVMA [1])	EC50 (HER2YVMA [2])
Cc1ccc(Oc2ccc(Nc3ncnc4sc5c(c34)CCN(C(=O)/C=C/CN(C)C)C5)cc2C)cn1 [Compound 8, (E)-4-(Dimethylamino)-1-(4-((3-methyl-4-((6-methylpyridin-3-yl)oxy)phenyl)amino)-5,6-dihydropyrido[4′,3′:4,5]thieno[2,3-d]pyrimidin-7(8H)-yl)but-2-en-1-one]	< 0.1 µM	< 0.1 µM
Cc1cc(Nc2ncnc3sc4c(c23)CCN(C(=O)/C=C/CN2CCOCC2)C4)ccc1Oc1ccc2ncnn2c1 [Compound 12]		< 0.1 µM
Cc1ccc(Oc2ccc(Nc3ncnc4sc5c(c34)CCN(C(=O)/C=C/CN3CC4CCC(C4)C3)C5)cc2C)cn1 [Compound 16, (E)-4-(3-azabicyclo[3.2.1]octan-3-yl)-1-(4-((3-methyl-4-((6-methylpyridin-3-yl)oxy)phenyl)amino)-5,8-dihydropyrido[4′,3′:4,5]thieno[2,3-d]pyrimidin-7(6H)-yl)but-2-en-1-one benzenesulfonate salt]	< 0.1 µM	< 0.1 µM
Cc1ccc(Oc2ccc(Nc3ncnc4sc5c(c34)CCN(C(=O)/C=C/CN3CCOCC3)C5)cc2C)cn1 [Compound 17, (E)-1-(4-((3-Methyl-4-((6-methylpyridin-3-yl)oxy)phenyl)amino)-5,6-dihydropyrido[4′,3′:4,5]thieno[2,3-d]pyrimidin-7(8H)-yl)-4-morpholinobut-2-en-1-one]	< 0.1 µM	< 0.1 µM
